The subject of series [1] is human gastric cancer SGC-7901 tumors. The series is described as follows: SGC-7901 tumors in nude mice. The series is classed as in vivo.
From the text: (§1) was higher than that of vandetanib .
as §1
Table S16. Efficacy of HA121-28 on human gastric cancer SGC-7901 tumors

The test system of series [2] is human esophageal cancer ECA-109 tumors. The series is described as follows: ECA-109 tumors in nude mice. Type of series: in vivo. The following applies: 8 mg/kg.
For series [3], the system named is human esophageal cancer KYSE-150 xenografts. The experiment in a line: KYSE-150 xenografts in nude mice. The series is classed as in vivo.
For series [4], the system named is RET fusion-positive NSCLC. The conditions noted are these: cited from earlier work.
A further series deals with KYSE-150 cells. The series is described as follows: Tumor cell proliferation in vitro. Type of series: cell-based, human. The conditions noted are these: Homo sapiens, KYSE-150; read-out: IC50, proliferation.
The next series has as its system TT cells. The experiment in a line: Tumor cell proliferation in vitro. The series is classed as cell-based, human. The following applies: Homo sapiens.
A further series concerns A431 cells. The experiment in a line: Tumor cell proliferation in vitro. The conditions noted are these: Homo sapiens, A-431, read-out: IC50, proliferation. Type of series: cell-based, human.
The subject of series [5] is human thyroid cancer TT tumors. The experiment in a line: TT tumors in nude mice. The series is classed as in vivo. The following applies: TT tumors.
From the text: as §1, §1
Table S15. Efficacy of HA121-28 on human thyroid cancer TT tumors

The next series concerns EGFR and ERK activation. The series is described as follows: EGF-stimulated activation of EGFR and ERK in A431 cells. The conditions noted are these: 10 ng/mL EGF, concentration-dependent. The series is classed as cell-based, human.
The next series concerns HUVEC cells. The experiment in a line: cells. The following applies: Homo sapiens.
For a further series, the system named is A498 cells. The experiment in a line: Tumor cell proliferation in vitro. The series is classed as cell-based. The conditions noted are these: Homo sapiens.
A further series deals with VEGFR and ERK activation. The experiment in a line: VEGF165-stimulated activation of VEGFR and ERK in HUVEC cells. The conditions noted are these: 50 ng/mL VEGF165, concentration-dependent. The series is classed as cell-based, human.
A further series deals with A375 cells. The series is described as follows: Tumor cell proliferation in vitro. Type of series: cell-based, human. The conditions noted are these: Homo sapiens, A-375.
The test system of another series is CFPAC-1 cells. The series is described as follows: Tumor cell proliferation in vitro. Type of series: cell-based. The conditions noted are these: Homo sapiens.
The subject of the next series is SGC-7901 cells. The series is described as follows: Tumor cell proliferation in vitro. Type of series: cell-based, human. The conditions noted are these: Homo sapiens, SGC-7901; SGC7901.
The next series concerns BEL-7402 cells. The series is described as follows: Tumor cell proliferation in vitro. The series is classed as cell-based. The conditions noted are these: Homo sapiens, Bel-7402; read-out: IC50, proliferation.
For another series, the system named is 8305C cells. The experiment in a line: Tumor cell proliferation in vitro. The series is classed as cell-based. The following applies: Homo sapiens.
The next series has as its system HCT116 cells. The experiment in a line: Tumor cell proliferation in vitro. Type of series: cell-based. The conditions noted are these: Homo sapiens, HCT-116.
Series [6] has as its system human melanoma A375 tumors. The experiment in a line: A375 tumors in nude mice. Type of series: in vivo.
For series [7] the following is noted: ref Phase I clinical study results of vandetanib; cited from earlier work.

Molecules are shown by their SMILES. Like-named read-outs stand apart in the source and are kept apart here. Marks after values point to notes of the source that are not given here.

Turning to `N#CC1(c2ccc(NC(=O)c3cccnc3NCc3ccncc3)cc2)CCCC1` [Apatinib], in [1] (200 mg/kg), the “RTV ±SD” value was 4.2±1.2, the T/C (usually the ratio of treated to control) is 26.5% and the “Terminal Tumor Volume” value is 793.5±324.4** mm^3.
With `N.N.[Cl][Pt][Cl]` [Cisplatin], in series [2], the “RTV ±SD” value is given as 6.4±2.9, the T/C stood at 62.0% and the “Terminal Tumor Volume” value is reported as 1,580.0±952.4 mm^3. Also, in [3] (10 mg/kg), the “RTV X±SD” value was 5.0±3.9, the T/C is 32.6% and the “Terminal Tumor Volume” value is 694.4±237.4** mm^3.
Turning to `CO[C@]1(C(=O)N[C@@H](C)c2ccc(-n3cc(F)cn3)nc2)CC[C@H](c2nc(C)cc(Nc3cc(C)[nH]n3)n2)CC1` [Pralsetinib], the ORR in [4] (platinum-pretreated patients ref 38) is listed as 61%.
As for `COc1ccc(CN2C3CC2CN(c2ccc(-c4cc(OCC(C)(C)O)cn5ncc(C#N)c45)cn2)C3)cn1` [Selpercatinib], the ORR in series [4] (platinum-pretreated patients ref 37) is 61%.
Take `COc1cc2c(Nc3ccc(Br)cc3F)ncnc2cc1OCC1CCN(C)CC1` [vandetanib, reference compound]: the IC50 in the series with KYSE-150 cells was found to be 1.5 ± 0.135 µM; with TT cells, 3.57 ± 0.0382 µM; with A431 cells it was 1.14 ± 0.255 µM; in the series with HUVEC cells, 0.117 µM; in the series on A498 cells, 1.03 ± 0.0427 µM; in the series with A375 cells, 2.19 ± 0.318 µM. Also, the IC50 with CFPAC-1 cells is 0.336 ± 0.01 µM; with SGC-7901 cells, 4.37 ± 0.441 µM; with BEL-7402 cells it was 15.1 ± 1.13 µM; with 8305C cells, 1.25 ± 0.0963 µM; in the series on HCT116 cells it was 3.19 ± 0.688 µM. Further, the “RTV ±SD” value in series [1] (50 mg/kg) is on record as 3.6±1.7; in series [1] (75 mg/kg) it was 2.3±1.0; in series [5] (25 mg/kg), 2.1±1.0; in series [5] (50 mg/kg) it was 1.0±0.4; in series [5] (75 mg/kg), 0.5±0.2; in series [6] (12.5 mg/kg), 22.1±17.2. For the same compound, the “RTV ±SD” value came to 11.4±4.7 in [6] (25 mg/kg) and 7.2±1.4 in series [6] (50 mg/kg). Also, the T/C in series [1] (50 mg/kg) is 23.0%; in series [1] (75 mg/kg), 14.3%; in series [5] (25 mg/kg) it was 34.1%; in series [5] (50 mg/kg) it was 17.0%; in [5] (75 mg/kg) it was 8.9%; in series [6] (12.5 mg/kg), 108.1%. Moreover, the T/C turned out to be 55.7% in series [6] (25 mg/kg); 35.0% in series [6] (50 mg/kg); 34.2% in series [3] (12.5 mg/kg); 16.8% in [3] (25 mg/kg); 8.4% in series [3] (50 mg/kg). Besides, the “Terminal Tumor Volume” value was 690.9±259.8** mm^3 in [1] (50 mg/kg); 486.9±221.2** mm^3 in series [1] (75 mg/kg); 302.4±91.1** mm^3 in series [5] (25 mg/kg); 155.5±82.1** mm^3 in series [5] (50 mg/kg); 100.1±62.5** mm^3 in [5] (75 mg/kg); 2824.1±1001.2 mm^3 in series [6] (12.5 mg/kg). The “Terminal Tumor Volume” value in [6] (25 mg/kg) was 1719.9±822.4 mm^3; in series [3] (12.5 mg/kg) it was 847.0±247.2** mm^3; in [3] (25 mg/kg), 489.8±273.9** mm^3; in [3] (50 mg/kg), 273.9±189.8** mm^3. Moreover, the “activation of EGFR and downstream ERK” value in the series with EGFR and ERK activation was “significantly inhibited”. Besides, the “activation of VEGFR and downstream ERK” value in the series with VEGFR and ERK activation was “significantly inhibited”. Moreover, in series [7], the MTD is 500 mg/day. In addition, the entries for the “RTV X±SD” value in [3] (12.5 mg/kg), in series [3] (25 mg/kg) and in series [3] (50 mg/kg) were 5.2±1.9, 2.6±0.7 and 1.3±0.6, respectively.
